Assay [1] relates to NCI-H358 (K-Ras G12C). The assay can be described thus: CellTiter-Glo cell viability assay, 5-day treatment. The format is cell-based. As to conditions: Homo sapiens, NCI-H358, H358, K-Ras G12C; read-out: Additional H358 Cell Viability assay data (K-Ras G12C, IC50). In short, it runs like this: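 Compounds were dispensed directly onto seeded cells and incubated for 5 days, then plates were equilibrated to room temperature for about 30 minutes before luminescence reading. Signals were expressed as percent of the mean DMSO control and fitted with a four-parameter logistic curve.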

The subject of assay [2] is K-Ras G12C (NCI-H358 cells). The assay can be described thus: Potency assay: pERK (AlphaLISA SureFire or In-Cell Western). The format is cell-based. As to conditions: Homo sapiens, NCI-H358; H358 KRAS G12C; read-out: pERK EC50. Here is the method: (§1) The purpose of this assay is to measure the ability of test compounds to inhibit K-Ras in cells. […] This procedure measures a decrease in cellular pERK in response to test compounds.
(§2) NCI-H358 cells were grown and maintained using media and procedures recommended by the ATCC. On the day prior to compound addition, cells were plated in 384-well cell culture plates (40 μl/well) and grown overnight in a 37° C., 5% CO2 incubator. Test compounds were prepared in 10, 3-fold dilutions in DMSO, with a high concentration of 10 mM. On the day of assay, 40 nL of test compound was added to each well of cell culture plate using an Echo550 liquid handler (LabCyte®). Concentrations of test compound were tested in duplicate. After compound addition, cells were incubated 4 hours at 37° C., 5% CO2. Following incubation, culture medium was removed and cells were washed once with phosphate buffered saline.
(§3) In some experiments, cellular pERK level was determined using the AlphaLISA SureFire Ultra p-ERK1/2 Assay Kit (PerkinElmer). Cells were lysed in 25 μL lysis buffer, with shaking at 600 RPM at room temperature. […] After a 2-hour incubation in the dark, 5 μL donor mix was added, plate was sealed, and incubated 2 hours at room temperature. Signal was read on an Envision plate reader (PerkinElmer) using standard AlphaLISA settings. Analysis of raw data was carried out in Excel (Microsoft) and Prism (GraphPad). Signal was plotted vs. the decadal logarithm of compound concentration, and IC50 was determined by fitting a 4-parameter sigmoidal concentration response model.
In other experiments, cellular pERK was determined by In-Cell Western. […] Fixed cells were washed 4 times for 5 minutes with TBS containing 0.1% Triton X-100 (TBST) and then blocked with 100 μL Odyssey blocking buffer (LI-COR) for 60 minutes at room temperature. […] Cells were washed 4 times for 5 minutes with TBST. Secondary antibody (IR-800CW rabbit, LI-COR, diluted 1:800) and DNA stain DRAQ5 (LI-COR, diluted 1:2000) were added and incubated 1-2 hours at room temperature. Cells were washed 4 times for 5 minutes with TBST. Plates were scanned on a LI-COR Odyssey CLx Imager. Analysis of raw data was carried out in Excel (Microsoft) and Prism (GraphPad). Signal was plotted vs. the decadal logarithm of compound concentration, and IC50 was determined by fitting a 4-parameter sigmoidal concentration response model.
as §1
as §2, with “mM. On day of” for “mM. On the day of”, “assay, 40 nl of test” for “assay, 40 nL of test”
as §3, with “μl” for “μL”, “sealed” for “sealed,”
(Alpha assays give light when donor and acceptor beads are brought close together.)

Assay [3] has as its target KRAS G12V (Homo sapiens, UniProt P01116+P62937, G12V). The assay is described as follows: Disruption of BRAF RBD interaction with Ras (FRET / MOA assay, with Cyclophilin A). The format is biochemical. The note with it: KRAS G12V; read-out: KRAS G12V FRET data IC50. In short, it runs like this: (§4)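 Biochemical TR-FRET disruption assay: nucleotide-loaded K-Ras with Cyclophilin A and a BRAF RBD construct, compound titrated over 10 points from 30 μM (final).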

Assay [4] addresses KRAS G13D (Homo sapiens, UniProt P01116+P62937, G13D). The description is as above. The format is biochemical. The note with it: KRAS G13D; read-out: KRAS G13D FRET data IC50. In short, it runs like this: as §4
Assay [5] deals with KRAS G13C (Homo sapiens, UniProt P01116+P62937, G13C). The assay is described as above. The format is biochemical. As to conditions: KRAS G13C; read-out: KRAS G13C FRET data IC50. In outline:
as §4

The target in assay [6] is KRAS G12C (Homo sapiens, UniProt P01116+P62937, G12C). The description is as above. The format is biochemical. As to conditions: KRAS G12C; read-out: KRAS G12C FRET data IC50. In short, it runs like this:
as §4

In assay [7] the target is NRAS G12C (Homo sapiens, UniProt P01111+P62937, G12C). The assay is described as above. The note with it: NRAS G12C; read-out: NRAS G12C FRET data IC50. The format is biochemical.
Assay [8] concerns the target KRAS G12S (Homo sapiens, UniProt P01116+P62937, G12S). The assay is described as above. The format is biochemical. As to conditions: read-out: KRAS G12S FRET data, IC50. In short, it runs like this:
as §4

Assay [9] deals with KRAS G12D (Homo sapiens, UniProt P01116+P62937, G12D). The description is as above. The format is biochemical. The note with it: read-out: KRAS G12D FRET data, IC50. In outline:
as §4

For assay [10], the target named is KRAS WT (Homo sapiens, UniProt P01116+P62937). The assay is described as above. The note with it: KRAS WT; read-out: KRAS WT FRET data IC50. The format is biochemical. In short, it runs like this: as §4

The source of these data is patent US20230233569A1 (Revolution Medicines, Inc., priority 2020, published 2023).

“And” between values parts separate entries of the source, which are not always exact repeats. Equal entries are not always repeated. Where only a bound is given, the exact number is not on record here.

KRAS G12V, sequence (P01116 1-169 isoform P01116-2 G12V limits assumed): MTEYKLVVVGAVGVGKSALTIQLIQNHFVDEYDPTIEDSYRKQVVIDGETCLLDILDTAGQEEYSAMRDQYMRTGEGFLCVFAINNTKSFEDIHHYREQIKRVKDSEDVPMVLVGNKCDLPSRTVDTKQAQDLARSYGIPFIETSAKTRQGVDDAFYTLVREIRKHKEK
KRAS G12V, sequence (P62937 whole entry): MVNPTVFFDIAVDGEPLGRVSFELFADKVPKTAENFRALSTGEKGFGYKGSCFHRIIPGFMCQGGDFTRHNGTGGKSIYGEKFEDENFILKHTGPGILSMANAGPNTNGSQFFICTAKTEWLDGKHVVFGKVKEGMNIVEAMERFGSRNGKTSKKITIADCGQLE
KRAS G12D, sequence (P01116 1-169 isoform P01116-2 G12D limits assumed): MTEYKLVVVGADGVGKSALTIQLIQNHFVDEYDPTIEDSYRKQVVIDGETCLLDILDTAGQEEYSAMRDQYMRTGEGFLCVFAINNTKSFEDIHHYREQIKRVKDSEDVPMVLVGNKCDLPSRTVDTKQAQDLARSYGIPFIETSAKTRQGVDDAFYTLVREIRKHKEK
KRAS G12D, sequence (P62937 whole entry): as the sequence (P62937 whole entry) above
KRAS G13D, sequence (P01116 1-169 isoform P01116-2 G13D limits assumed): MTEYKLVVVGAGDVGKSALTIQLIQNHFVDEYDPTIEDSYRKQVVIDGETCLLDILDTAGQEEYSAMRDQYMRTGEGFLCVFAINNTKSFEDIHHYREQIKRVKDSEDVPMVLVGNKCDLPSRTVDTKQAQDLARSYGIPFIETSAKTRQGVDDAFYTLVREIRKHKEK
KRAS G13D, sequence (P62937 whole entry): as the sequence (P62937 whole entry) above
NRAS G12C, sequence (P01111 whole entry G12C): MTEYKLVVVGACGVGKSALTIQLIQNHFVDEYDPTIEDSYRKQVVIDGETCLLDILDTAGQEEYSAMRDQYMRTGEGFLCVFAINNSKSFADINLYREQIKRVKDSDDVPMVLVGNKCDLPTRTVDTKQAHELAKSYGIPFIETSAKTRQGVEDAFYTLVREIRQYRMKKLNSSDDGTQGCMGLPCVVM
NRAS G12C, sequence (P62937 whole entry): as the sequence (P62937 whole entry) above
KRAS WT, sequence (P01116 1-169 isoform P01116-2 limits assumed): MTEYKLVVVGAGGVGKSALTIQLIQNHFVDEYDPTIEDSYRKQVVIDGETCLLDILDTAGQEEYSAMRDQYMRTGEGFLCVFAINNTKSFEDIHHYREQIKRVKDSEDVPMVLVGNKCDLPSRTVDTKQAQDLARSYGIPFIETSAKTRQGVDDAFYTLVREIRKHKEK
KRAS WT, sequence (P62937 whole entry): as the sequence (P62937 whole entry) above
KRAS G12C, sequence (P01116 1-169 isoform P01116-2 G12C): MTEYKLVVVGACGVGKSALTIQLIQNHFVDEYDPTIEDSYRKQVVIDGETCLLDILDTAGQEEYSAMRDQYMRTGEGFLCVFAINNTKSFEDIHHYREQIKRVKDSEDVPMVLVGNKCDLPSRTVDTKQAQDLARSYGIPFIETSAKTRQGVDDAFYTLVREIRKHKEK
KRAS G12C, sequence (P62937 whole entry): as the sequence (P62937 whole entry) above
KRAS G13C, sequence (P01116 1-169 isoform P01116-2 G13C): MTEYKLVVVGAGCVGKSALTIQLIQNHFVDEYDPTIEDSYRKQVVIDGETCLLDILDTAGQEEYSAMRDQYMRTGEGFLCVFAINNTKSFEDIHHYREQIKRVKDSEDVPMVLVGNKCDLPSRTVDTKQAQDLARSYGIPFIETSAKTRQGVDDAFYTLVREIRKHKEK
KRAS G13C, sequence (P62937 whole entry): as the sequence (P62937 whole entry) above
KRAS G12S, sequence (P01116 1-169 isoform P01116-2 G12S limits assumed): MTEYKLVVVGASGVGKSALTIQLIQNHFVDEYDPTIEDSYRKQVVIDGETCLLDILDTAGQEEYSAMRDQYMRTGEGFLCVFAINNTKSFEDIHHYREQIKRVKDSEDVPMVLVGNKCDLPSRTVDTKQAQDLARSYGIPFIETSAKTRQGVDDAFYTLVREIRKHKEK
KRAS G12S, sequence (P62937 whole entry): as the sequence (P62937 whole entry) above

By IC50 is commonly meant the midpoint of a concentration-inhibition curve. By EC50 is commonly meant the midpoint of the concentration-response curve. As to `CCn1c(-c2cccnc2COC)c2c3cc(ccc31)-c1cc(O)cc(c1)C[C@H](NC(=O)[C@@H](C(C)C)N(C)C(=O)[C@H]1CCN(C(=O)C#CCN(C)C)C1)C(=O)N1CCC[C@H](N1)C(=O)OCC(C)(C)C2` [Example A156], the IC50 was 10 to 100 nM in assay [1]; above 10000 nM in assay [3]; 1000 to 10000 nM in [4]; 1000 to 10000 nM in assay [5]; 10 to 100 nM in assay [6]; 100 to 1000 nM in assay [7]. Besides, the figures for the IC50 in [8], in [9] and in [10] were above 10000 nM, 1000 to 10000 nM and above 10000 nM, respectively. Also, the EC50 in [2] was below 5000 nM.
Regarding `CCn1c(-c2cccnc2COC)c2c3cc(ccc31)-c1cc(O)cc(c1)C[C@H](NC(=O)[C@H](C(C)C)N(C)C(=O)[C@H]1CCN(C(=O)C#CC(C)(C)N(C)C)C1)C(=O)N1CCC[C@H](N1)C(=O)OCC(C)(C)C2` [Example A162], the IC50 in assay [1] is below 10 nM; in assay [3], 100 to 1000 nM; in assay [4], 1000 to 10000 nM; in [5], 100 to 1000 nM; in assay [6], below 10 nM; in assay [7] it was below 10 nM. Moreover, the IC50 in [8], in assay [9] and in [10] was 1000 to 10000 nM in each case. Moreover, in assay [2], the EC50 is below 5000 nM.
As to `CCn1c(-c2cccnc2COC)c2c3cc(ccc31)-c1cc(O)cc(c1)C[C@H](NC(=O)[C@H](C(C)C)N(C)C(=O)[C@H]1CCN(C(=O)/C=C\CN(C)C)C1)C(=O)N1CCC[C@H](N1)C(=O)OCC(C)(C)C2` [Example A164], the IC50 in assay [1] fell in the range of 100 to 1000 nM; in assay [3] it was 100 to 1000 nM; in assay [4], 100 to 1000 nM; in [5], 100 to 1000 nM; in assay [6], 10 to 100 nM; in [7], 10 to 100 nM. Moreover, the IC50 in assay [8] fell in the range of 100 to 1000 nM; in assay [9], 1000 to 10000 nM; in [10], 100 to 1000 nM. Moreover, in [2], the 50% effective concentration (EC50) was below 5000 nM.
In the case of `C=CC(=O)N1CC(NC[C@H](C(=O)N[C@H]2Cc3cc(O)cc(c3)-c3ccc4c(c3)c(c(-c3cccnc3COC)n4CC)CC(C)(C)COC(=O)[C@@H]3CCCN(N3)C2=O)C(C)C)C1` [Example A174], the 50% inhibitory concentration (IC50) was above 1000 nM in [1]; above 10000 nM in [3]; above 10000 nM in assay [4]; 1000 to 10000 nM in [5]; 100 to 1000 nM in assay [6]; 1000 to 10000 nM in assay [7]. Besides, the IC50 in [8], in assay [9] and in [10] was above 10000 nM each time. For the same molecule, the concentration giving a half-maximal response (EC50) in assay [2] was below 5000 nM.
`CCn1c(-c2cccnc2[C@H](C)OC)c2c3cc(ccc31)-c1cc(O)cc(c1)C[C@H](NC(=O)[C@H](C(C)C)N(C)C(=O)[C@H]1CCN(C(=O)C#CCN3CCOCC3)C1)C(=O)N1CCC[C@H](N1)C(=O)OCC(C)(C)C2` [Example A182]: the IC50 is 10 to 100 nM in assay [1]; 100 to 1000 nM and 1000 to 10000 nM in [3]; 100 to 1000 nM and 1000 to 10000 nM in [4]; 1000 to 10000 nM and 10 to 100 nM in assay [5]; 10 to 100 nM and < 10 nM in assay [6]; 10 to 100 nM and < 10 nM in [7]. Also, the IC50 in assay [8] was 100 to 1000 nM and 1000 to 10000 nM; in assay [9] it was 1000 to 10000 nM and > 10000 nM; in [10], 100 to 1000 nM and 1000 to 10000 nM. Besides, the EC50 in [2] is below 5000 nM.
Consider `C=CC(=O)N1CC[C@H](C(=O)N(C)[C@H](C(=O)N[C@H]2Cc3cc(O)cc(c3)-c3ccc4c(c3)c(c(-c3cccnc3[C@H](C)OC)n4C)CC(C)(C)COC(=O)[C@@H]3CCCN(N3)C2=O)C(C)C)C1` [Example A197], for which the half-maximal inhibitory concentration (IC50) in assay [1] is 10 to 100 nM; in assay [3], 1000 to 10000 nM; in [4] it was 1000 to 10000 nM; in [5] it was 1000 to 10000 nM; in assay [6], 100 to 1000 nM; in assay [7], 100 to 1000 nM. Also, the values for the half-maximal inhibitory concentration (IC50) in [8], in assay [9] and in assay [10] were 1000 to 10000 nM, above 10000 nM and 1000 to 10000 nM, respectively. Moreover, the EC50 in [2] is below 5000 nM.
For the molecule `CCn1c(-c2cccnc2COC)c2c3cc(ccc31)-c1cc(O)cc(c1)C[C@H](NC(=O)[C@@H](C(C)C)N(C)C(=O)[C@H]1CCN(C(=O)C#CC(C)N3CCOCC3)C1)C(=O)N1CCC[C@H](N1)C(=O)OCC(C)(C)C2` (stereo partly drawn) [Example A200], the half-inhibitory concentration (IC50) in assay [1] is 100 to 1000 nM; in [3], above 10000 nM; in assay [4], above 10000 nM; in assay [5] it was 1000 to 10000 nM; in assay [6], 10 to 100 nM; in [7] it was 10 to 100 nM. Further, the 50% inhibitory concentration (IC50) in assay [8], in assay [9] and in [10] was above 10000 nM each time. In assay [2], the concentration for a half-maximal effect (EC50) is below 5000 nM.
For the molecule `CCn1c(-c2cccnc2[C@H](C)OC)c2c3cc(ccc31)-c1cc(sn1)C[C@H](NC(=O)[C@H](C(C)C)N(C)C(=O)[C@@H]1CCN(C(=O)C#CCN3CCOCC3)C1)C(=O)N1CCC[C@H](N1)C(=O)OCC(C)(C)C2` [Example A201], the IC50 in assay [1] was 10 to 100 nM; in [3], above 10000 nM; in [4] it was above 10000 nM; in assay [5], 1000 to 10000 nM; in assay [6], 10 to 100 nM; in assay [7], 100 to 1000 nM. Also, the IC50 in assay [8], in [9] and in [10] was above 10000 nM throughout. Moreover, the EC50 in assay [2] is below 5000 nM.
In the case of `CCn1c(-c2cccnc2[C@H](C)OC)c2c3cc(ccc31)-c1cc(O)cc(c1)C[C@H](NC(=O)[C@H](C(C)C)N(C)C(=O)c1nc(NC(=O)/C=C/CN(C)C)cs1)C(=O)N1CCC[C@H](N1)C(=O)OCC(C)(C)C2` [Example A258], the IC50 in [1] is 100 to 1000 nM; in assay [3], 100 to 1000 nM and 1000 to 10000 nM; in assay [4] it was 100 to 1000 nM and 1000 to 10000 nM; in assay [5] it was < 10 nM and 10 to 100 nM; in assay [6], 100 to 1000 nM; in assay [7], 100 to 1000 nM. In addition, the IC50 was 1000 to 10000 nM in [8]; 1000 to 10000 nM and > 10000 nM in assay [9]; 100 to 1000 nM and 1000 to 10000 nM in assay [10]. The EC50 in [2] was below 5000 nM.
